Where two headings read alike, the source gives them in different places.
Tested on: Mycosphaerella graminicola; Anamorph: Septoria tritici; Bayer Code SEPTTR
Test: Leaf blotch of wheat, foliar fungicide treatment, one day protectant (1DP) or three day curative (3DC)
Format: in vivo, Septoria tritici on wheat plants (variety Yuma)
Conditions: Zymoseptoria tritici; for pest or weed control at 50 ppm / pest or weed control at 200 ppm: % disease control rating
[1] = 24 h, one day protectant (1DP), 25 ppm, rating of percent disease control, read-out: SETTTR 1DP 25 ppm
[2] = 24 h, one day protectant (1DP), rating of percent disease control, read-out: SEPTTR 1DP 100 ppm
[3] = 72 h, three day curative (3DC), 25 ppm, rating of percent disease control, read-out: SEPTTR 3DC 25 ppm
[4] = 72 h, three day curative (3DC), rating of percent disease control, read-out: SEPTTR 3DC 100 ppm
[5] = 24 h, one day protectant, 25 ppm, rating of percent disease control, read-out: SETTTR 1DP 25 ppm
[6] = 24 h, one day protectant, rating of percent disease control, read-out: SEPTTR 1DP 100 ppm
[7] = 72 h, three day curative, 25 ppm, rating of percent disease control, read-out: SEPTTR 3DC 25 ppm
[8] = 72 h, three day curative, rating of percent disease control, read-out: SEPTTR 3DC 100 ppm
[9] = 24 h, one day protectant (1DP), 25 ppm, percent disease control rating, read-out: SETTTR 1DP 25 ppm
[10] = 24 h, one day protectant (1DP), percent disease control rating, read-out: SEPTTR 1DP 100 ppm
[11] = 72 h, three day curative (3DC), 25 ppm, percent disease control rating, read-out: SEPTTR 3DC 25 ppm
[12] = 72 h, three day curative (3DC), percent disease control rating, read-out: SEPTTR 3DC 100 ppm
[13] = 24 h, one day protectant (1DP), 25 ppm (first 1DP column), percent control rating, read-out: SETTTR 1DP 25 ppm
[14] = 24 h, one day protectant (1DP), 25 ppm as printed (second 1DP column), percent control rating, read-out: SETTTR 1DP 25 ppm
[15] = 72 h, three day curative (3DC), 25 ppm, percent control rating, read-out: SEPTTR 3DC 25 ppm
[16] = 72 h, three day curative (3DC), percent control rating, read-out: SEPTTR 3DC 100 ppm

SMILES	pest or weed control at 25 ppm [1] [%]	pest or weed control at 100 ppm [2] [%]	pest or weed control at 25 ppm [3] [%]	pest or weed control at 100 ppm [4] [%]	further results
CN1CCCC/C1=N\c1nc(OCc2cccc(F)c2)ncc1F [Compound 326]	76 to 100	76 to 100	51 to 75	76 to 100	
Cc1ccc(COc2ncc(F)c(NNC3CCCCC3)n2)cc1 [Compound 701]					pest or weed control at 25 ppm [5]: 0 to 25%; pest or weed control at 100 ppm [6]: 76 to 100%; pest or weed control at 25 ppm [7]: 0 to 25%; pest or weed control at 100 ppm [8]: 76 to 100%
Cc1ccc(COc2ncc(F)c(NCc3cccs3)n2)cc1 [Compound 949]					pest or weed control at 50 ppm (24 h, one day protectant): 51 to 75%; pest or weed control at 200 ppm (24 h, one day protectant): 76 to 100%
COc1cccc(COc2ncc(F)c(NN3CCN(C)CC3)n2)c1 [Compound 77]					pest or weed control at 25 ppm [9]: 0 to 25%; pest or weed control at 100 ppm [10]: 76 to 100%; pest or weed control at 25 ppm [11]: 26 to 50%; pest or weed control at 100 ppm [12]: 76 to 100%
COc1ccc(CCOc2ncc(F)c(N)n2)cc1 [Compound 645]					pest or weed control at 25 ppm [5]: 26 to 50%; pest or weed control at 100 ppm [6]: 76 to 100%; pest or weed control at 25 ppm [7]: 0 to 25%; pest or weed control at 100 ppm [8]: 51 to 75%
CN(C)/C=N/c1nc(OC(=O)C2CC2)ncc1F [Compound 417]	76 to 100	76 to 100	76 to 100	76 to 100	
CCOC(=O)Oc1ncc(F)c(/N=C/N(C)C)n1 [Compound 26, Carbonic acid 4-(dimethylamino-methyleneamino)-5-fluoropyrimidin-2-yl ester ethyl ester]					pest or weed control at 25 ppm [9]: 76 to 100%; pest or weed control at 100 ppm [10]: 76 to 100%; pest or weed control at 25 ppm [11]: 76 to 100%; pest or weed control at 100 ppm [12]: 76 to 100%
CNc1nc(OCc2ccc(F)cc2)ncc1F [Compound 784]	0 to 25	0 to 25	0 to 25	0 to 25	
COCCCOc1ncc(F)c(/N=C/N(C)C)n1 [Compound 457]	51 to 75	76 to 100	51 to 75	76 to 100	
Cc1cc(C)cc(C(C)Oc2ncc(F)c(N)n2)c1 (centres unmarked) [Compound 592]					pest or weed control at 25 ppm [5]: 76 to 100%; pest or weed control at 100 ppm [6]: 76 to 100%; pest or weed control at 25 ppm [7]: 76 to 100%; pest or weed control at 100 ppm [8]: 76 to 100%
O=C(/C=C/c1ccccc1)Nc1nc(O)ncc1F [Compound 974]					pest or weed control at 25 ppm [13]: 51 to 75%; pest or weed control at 25 ppm [14]: 76 to 100%; pest or weed control at 25 ppm [15]: 51 to 75%; pest or weed control at 100 ppm [16]: 26 to 50%
O=[N+]([O-])c1ccccc1SNc1nc(OCc2ccsc2)ncc1F [Compound 157]					pest or weed control at 25 ppm [9]: 26 to 50%; pest or weed control at 100 ppm [10]: 76 to 100%; pest or weed control at 25 ppm [11]: 26 to 50%; pest or weed control at 100 ppm [12]: 26 to 50%
Nc1nc(OC(=O)c2ccccc2)ncc1F [Compound 413]	76 to 100	76 to 100	76 to 100	76 to 100	
COc1ncc(F)c(NNC(=O)Cc2ccccc2)n1 [Compound 1120]					pest or weed control at 25 ppm [13]: 0 to 25%; pest or weed control at 25 ppm [14]: 0 to 25%; pest or weed control at 25 ppm [15]: 0 to 25%; pest or weed control at 100 ppm [16]: 0 to 25%
Nc1nc(OCOC(=O)C2CCCC2)ncc1F [Compound 962, (4-amino-5-fluoropyrimidin-2-yloxy)methyl cyclopentanecarboxylate]					pest or weed control at 25 ppm [13]: 76 to 100%; pest or weed control at 25 ppm [14]: 76 to 100%; pest or weed control at 25 ppm [15]: 76 to 100%; pest or weed control at 100 ppm [16]: 76 to 100%
CN(C)/C=N/c1nc(Cl)ncc1F [Compound 252]	26 to 50	26 to 50	0 to 25	0 to 25	
Fc1ccc(COc2ncc(F)c(N/N=C/c3ccccc3Cl)n2)cc1 [Compound 700]					pest or weed control at 25 ppm [5]: 0 to 25%; pest or weed control at 100 ppm [6]: 51 to 75%; pest or weed control at 25 ppm [7]: 26 to 50%; pest or weed control at 100 ppm [8]: 76 to 100%
Cc1ccc(COc2ncc(F)c(NS(=O)(=O)C3CC3)n2)cc1 [Compound 1007]					pest or weed control at 25 ppm [13]: 0 to 25%; pest or weed control at 25 ppm [14]: 0 to 25%; pest or weed control at 25 ppm [15]: 0 to 25%; pest or weed control at 100 ppm [16]: 0 to 25%
CNc1nc(OCc2cccs2)ncc1F [Compound 237]	0 to 25	0 to 25	0 to 25	0 to 25	
Nc1nc(OCc2cn3ccccc3n2)ncc1F [Compound 307]	76 to 100	76 to 100	76 to 100	76 to 100	
O=C(NNc1nc(OCc2ccccc2)ncc1F)c1ccccc1 [Compound 293]	0 to 25	0 to 25	0 to 25	0 to 25	

SMILES	pest or weed control at 25 ppm [1] [%]	pest or weed control at 100 ppm [2] [%]	pest or weed control at 25 ppm [3] [%]	pest or weed control at 100 ppm [4] [%]	further results
Fc1cccc(COc2ncc(F)c(NCc3cccs3)n2)c1 [Compound 910]					pest or weed control at 200 ppm (24 h, one day protectant): 76 to 100%
Nc1nc(OC2CCCCC2)ncc1F [Compound 848]					pest or weed control at 50 ppm (24 h, one day protectant): 0 to 25%; pest or weed control at 200 ppm (24 h, one day protectant): 0 to 25%
C/C=C(C)/C=N/Nc1nc(OCc2cccc(OC)c2)ncc1F [Compound 285]	51 to 75	76 to 100	26 to 50	26 to 50	
Nc1nc(OCc2cn3ccsc3n2)ncc1F [Compound 472]	76 to 100	76 to 100	76 to 100	76 to 100	
O=S(=O)(Nc1nc(O)ncc1F)c1ccccc1Cl [Compound 1103]					pest or weed control at 25 ppm [13]: 0 to 25%; pest or weed control at 25 ppm [14]: 0 to 25%; pest or weed control at 25 ppm [15]: 0 to 25%; pest or weed control at 100 ppm [16]: 0 to 25%
COc1ccccc1COc1ncc(F)c(N)n1 [Compound 300]	76 to 100	76 to 100	76 to 100	76 to 100	
Fc1cnc(OCc2ccccc2)nc1/N=C/N1CCc2ccccc2C1 [Compound 679]					pest or weed control at 25 ppm [5]: 76 to 100%; pest or weed control at 100 ppm [6]: 76 to 100%; pest or weed control at 25 ppm [7]: 76 to 100%; pest or weed control at 100 ppm [8]: 76 to 100%
C=C(C)COc1ncc(F)c(N)n1 [Compound 256]	0 to 25	0 to 25	0 to 25	26 to 50	
Nc1nc(OCc2ccc(O)cc2)ncc1F [Compound 284]	0 to 25	0 to 25	0 to 25	0 to 25	
CCOCc1cccc(COc2ncc(F)c(N)n2)c1 [Compound 543]	76 to 100	76 to 100	76 to 100	76 to 100	
CC(Oc1ncc(F)c(N)n1)c1cccc([N+](=O)[O-])c1 (centres unmarked) [Compound 576]					pest or weed control at 25 ppm [5]: 26 to 50%; pest or weed control at 100 ppm [6]: 76 to 100%; pest or weed control at 25 ppm [7]: 26 to 50%; pest or weed control at 100 ppm [8]: 76 to 100%
COc1cccc(COc2ncc(F)c(/N=C3\CCCCN3C)n2)c1 [Compound 327]	51 to 75	76 to 100	51 to 75	76 to 100	
COc1ccc(COc2ncc(F)c(N)n2)cc1C [Compound 386]	76 to 100	76 to 100	76 to 100	76 to 100	
Nc1nc(OCc2cnccn2)ncc1F [Compound 699]					pest or weed control at 25 ppm [5]: 76 to 100%; pest or weed control at 100 ppm [6]: 76 to 100%; pest or weed control at 25 ppm [7]: 51 to 75%; pest or weed control at 100 ppm [8]: 76 to 100%
CN(C)/C=N/c1nc(OC(=O)C2CCCCC2)ncc1F [Compound 247]	76 to 100	76 to 100	76 to 100	76 to 100	
CC(Oc1ncc(F)c(N)n1)c1cccc(I)c1 (centres unmarked) [Compound 798]	76 to 100	76 to 100	76 to 100	76 to 100	
Fc1cnc(OCc2ccco2)nc1NCc1ccc(Cl)nc1 [Compound 873]					pest or weed control at 50 ppm (24 h, one day protectant): 0 to 25%; pest or weed control at 200 ppm (24 h, one day protectant): 0 to 25%
COc1ccccc1COc1ncc(F)c(NCOCc2ccccc2)n1 [Compound 354]	51 to 75	76 to 100	26 to 50	76 to 100	
COc1ccnc(Cl)c1S(=O)(=O)Nc1nc(OCc2ccc(C)cc2)ncc1F [Compound 1016]					pest or weed control at 25 ppm [13]: 0 to 25%; pest or weed control at 25 ppm [14]: 0 to 25%; pest or weed control at 25 ppm [15]: 51 to 75%; pest or weed control at 100 ppm [16]: 51 to 75%
Cn1nc(COc2ncc(F)c(N)n2)c2ccccc21 [Compound 396]	76 to 100	76 to 100	76 to 100	76 to 100	

Source: patent publication US9204653B2, “5-fluoro pyrimidine derivatives” (DOW AGROSCIENCES LLC, priority 2008, dated 2015)
